Key:
[1] = tested on: Geobacillus stearothermophilus spores; assay: Resistance of self-contained biological indicators to hydrogen peroxide sterilization, glucosidase enzyme activity fluorescence readout (ENZ+); assay type: cell-based
Method: (§1) PET film (.09 mm thick) was coated with colloidal silica as described in International Publication No. WO2014/189716, which is incorporated herein by reference in its entirety. […] Separate aqueous spore coating solutions were prepared as described in Example 1 with the amino acids shown in table 4 present in the coating solutions. Two microliter aliquots (containing at least 10^6 spores) of the respective spore coating solutions were deposited onto the silica-coated PET film, forming a series of spaced-apart spots on the film. The spore coated films were dried in a 60° C. incubator for 12 minutes. Circular discs (hereinafter, “coated carriers”) of the PET film, each disc including one of the dried spots, were punched out and were used to assemble self-contained biological indicators (BI) similar to that shown in FIG. 1 of International Publication No. WO2014/189716. The coated carriers described above were placed into the “spore carrier 135” shown in FIG. 1 of International Publication No. WO2014/189716. Each self-contained BI comprised a polycarbonate outer container, a breaker, a cap, and a cap filter. Disposed inside the outer container were a coated carrier along with an ampoule media containing the nutrient medium from 3M ATTEST 1292 Rapid Readout Biological Indicators plus 5g/L methionine (as described in Example 1).
(§2) The self-contained biological indicators with different concentrations of additives (Table 4) were exposed to hydrogen peroxide sterilization in STERRAD NX sterilizer. The sterilization processes were run by manually injecting 1.0 ml of 59% hydrogen peroxide per load, unless specified otherwise. The exposure time was varied to determine the resistance profile of self-contained BIs with different additive formulations. The BIs were activated by pressing down the cap to break the media ampoule. The activated BIs were placed in a bench-top fluorimeter (3M Company, St. Paul, Minn.) to detect fluorescence.
(§3) A self-contained BI that is not completely inactivated (i.e., not all of the spores are killed by the sterilization process) will resume cellular functions upon activation of the BI. The production of glucosidase enzyme by surviving spores is an indication that at least one of the spores have not been inactivated (killed) by the sterilization process. The glucosidase enzyme cleaves the 4-methylumbelliferyl-glucoside (MUG) releasing the fluorescent methyl umbelliferone, which is detected using a bench-top fluorimeter. Growth and proliferation of spores in the self-contained biological indicator can also be detected by a pH change, which may be detected by a color change of the pH indicator in the growth medium.
(§4) Self-contained biological indicators were prepared (with various additives listed in table 4) as described above in this Example. For each additive tested, a lower range and a higher range was used as a preliminary screen to identify additives modulated the resistance of the spores to the sterilant. Five self-contained BIs representing each condition were exposed to hydrogen peroxide sterilization in STERRAD NX sterilizer. The sterilization processes used a constant injection volume (1.0 ml of 59% hydrogen peroxide) and various times (e.g., 20 seconds to 7 minutes) of exposure to the hydrogen peroxide. The self-contained BIs were activated after exposure to the sterilization process and were monitored for fluorescence using a bench-top fluorimeter) and pH based color change (visually). […]
(§5) Self-contained biological indicators (with various additives listed in table 5) were prepared as described in Example 2. The self-contained biological indicators were exposed to hydrogen peroxide in a STERRAD NX sterilizer as described in Example 2. The self-contained BIs were activated after exposure to the sterilization process and were monitored for fluorescence using a bench-top fluorimeter and pH based color change (visually).

[2] = tested on: Geobacillus stearothermophilus spores; assay: Resistance of self-contained biological indicators to hydrogen peroxide sterilization, growth readout by pH colour change (GRO+); assay type: cell-based
Method: as §1, §2, §3, §4, §5

[3] = Table 4, modulator 0.01 weight percent in spore coating solution, H2O2 exposure 30 sec.
[4] = Table 4, modulator 0.01 weight percent in spore coating solution, H2O2 exposure 60 sec.
[5] = Table 4, modulator 0.01 weight percent in spore coating solution, H2O2 exposure 90 sec.
[6] = Table 4, modulator 0.01 weight percent in spore coating solution, H2O2 exposure 3 min.
[7] = Table 4, modulator 0.01 weight percent in spore coating solution, H2O2 exposure 7 min.
[8] = Table 4, modulator 0.1 weight percent in spore coating solution, H2O2 exposure 30 sec.
[9] = Table 4, modulator 0.1 weight percent in spore coating solution, H2O2 exposure 60 sec.
[10] = Table 4, modulator 0.1 weight percent in spore coating solution, H2O2 exposure 90 sec.
[11] = Table 4, modulator 0.1 weight percent in spore coating solution, H2O2 exposure 3 min.
[12] = Table 4, modulator 0.1 weight percent in spore coating solution, H2O2 exposure 7 min.
[13] = Table 5, modulator 0.05 weight percent in spore coating solution, H2O2 exposure 20 sec.
[14] = Table 5, modulator 0.05 weight percent in spore coating solution, H2O2 exposure 30 sec.
[15] = Table 5, modulator 0.05 weight percent in spore coating solution, H2O2 exposure 60 sec.
[16] = Table 5, modulator 0.05 weight percent in spore coating solution, H2O2 exposure 90 sec.
[17] = Table 5, modulator 0.05 weight percent in spore coating solution, H2O2 exposure 3 min.
[18] = Table 5, modulator 0.05 weight percent in spore coating solution, H2O2 exposure 7 min.
[19] = Table 5, modulator 0.1 weight percent in spore coating solution, H2O2 exposure 20 sec.
[20] = Table 5, modulator 0.1 weight percent in spore coating solution, H2O2 exposure 30 sec.
[21] = Table 5, modulator 0.1 weight percent in spore coating solution, H2O2 exposure 60 sec.
[22] = Table 5, modulator 0.1 weight percent in spore coating solution, H2O2 exposure 90 sec.
[23] = Table 5, modulator 0.1 weight percent in spore coating solution, H2O2 exposure 3 min.
[24] = Table 5, modulator 0.1 weight percent in spore coating solution, H2O2 exposure 7 min.
[25] = Table 5, modulator 0.2 weight percent in spore coating solution, H2O2 exposure 20 sec.
[26] = Table 5, modulator 0.2 weight percent in spore coating solution, H2O2 exposure 30 sec.
[27] = Table 5, modulator 0.2 weight percent in spore coating solution, H2O2 exposure 60 sec.
[28] = Table 5, modulator 0.2 weight percent in spore coating solution, H2O2 exposure 90 sec.
[29] = Table 5, modulator 0.2 weight percent in spore coating solution, H2O2 exposure 3 min.
[30] = Table 5, modulator 0.2 weight percent in spore coating solution, H2O2 exposure 7 min.
[31] = Table 5, modulator 0.4 weight percent in spore coating solution, H2O2 exposure 20 sec.
[32] = Table 5, modulator 0.4 weight percent in spore coating solution, H2O2 exposure 30 sec.
[33] = Table 5, modulator 0.4 weight percent in spore coating solution, H2O2 exposure 60 sec.
[34] = Table 5, modulator 0.4 weight percent in spore coating solution, H2O2 exposure 90 sec.
[35] = Table 5, modulator 0.4 weight percent in spore coating solution, H2O2 exposure 3 min.
[36] = Table 5, modulator 0.4 weight percent in spore coating solution, H2O2 exposure 7 min.
[37] = Table 5, modulator 0.8 weight percent in spore coating solution, H2O2 exposure 20 sec.
[38] = Table 5, modulator 0.8 weight percent in spore coating solution, H2O2 exposure 30 sec.
[39] = Table 5, modulator 0.8 weight percent in spore coating solution, H2O2 exposure 60 sec.
[40] = Table 5, modulator 0.8 weight percent in spore coating solution, H2O2 exposure 90 sec.
[41] = Table 5, modulator 0.8 weight percent in spore coating solution, H2O2 exposure 3 min.
[42] = Table 5, modulator 0.8 weight percent in spore coating solution, H2O2 exposure 7 min.

N[C@@H](Cc1c[nH]cn1)C(=O)O [L-histidine]
percentage of self-contained biological indicators positive for glucosidase enzyme activity (ENZ+) [1, 3]: 100%
percentage of self-contained biological indicators positive for glucosidase enzyme activity (ENZ+) [1, 4]: 80%
percentage of self-contained biological indicators positive for glucosidase enzyme activity (ENZ+) [1, 5]: 0%
percentage of self-contained biological indicators positive for glucosidase enzyme activity (ENZ+) [1, 6]: 0%
percentage of self-contained biological indicators positive for glucosidase enzyme activity (ENZ+) [1, 7]: 0%
percentage of self-contained biological indicators positive for glucosidase enzyme activity (ENZ+) [1, 8]: 100%
percentage of self-contained biological indicators positive for glucosidase enzyme activity (ENZ+) [1, 9]: 10%
percentage of self-contained biological indicators positive for glucosidase enzyme activity (ENZ+) [1, 10]: 0%
percentage of self-contained biological indicators positive for glucosidase enzyme activity (ENZ+) [1, 11]: 0%
percentage of self-contained biological indicators positive for glucosidase enzyme activity (ENZ+) [1, 12]: 0%
percentage of self-contained biological indicators positive for glucosidase enzyme activity (ENZ+) [1, 13]: 100%
percentage of self-contained biological indicators positive for glucosidase enzyme activity (ENZ+) [1, 14]: 100%
percentage of self-contained biological indicators positive for glucosidase enzyme activity (ENZ+) [1, 15]: 0%
percentage of self-contained biological indicators positive for glucosidase enzyme activity (ENZ+) [1, 16]: 0%
percentage of self-contained biological indicators positive for glucosidase enzyme activity (ENZ+) [1, 17]: 0%
percentage of self-contained biological indicators positive for glucosidase enzyme activity (ENZ+) [1, 18]: 0%
percentage of self-contained biological indicators positive for glucosidase enzyme activity (ENZ+) [1, 19]: 100%
percentage of self-contained biological indicators positive for glucosidase enzyme activity (ENZ+) [1, 20]: 100%
percentage of self-contained biological indicators positive for glucosidase enzyme activity (ENZ+) [1, 21]: 67%
percentage of self-contained biological indicators positive for glucosidase enzyme activity (ENZ+) [1, 22]: 67%
percentage of self-contained biological indicators positive for glucosidase enzyme activity (ENZ+) [1, 23]: 0%
percentage of self-contained biological indicators positive for glucosidase enzyme activity (ENZ+) [1, 24]: 0%
percentage of self-contained biological indicators positive for glucosidase enzyme activity (ENZ+) [1, 25]: 100%
percentage of self-contained biological indicators positive for glucosidase enzyme activity (ENZ+) [1, 26]: 100%
percentage of self-contained biological indicators positive for glucosidase enzyme activity (ENZ+) [1, 27]: 33%
percentage of self-contained biological indicators positive for glucosidase enzyme activity (ENZ+) [1, 28]: 67%
percentage of self-contained biological indicators positive for glucosidase enzyme activity (ENZ+) [1, 29]: 0%
percentage of self-contained biological indicators positive for glucosidase enzyme activity (ENZ+) [1, 30]: 0%
percentage of self-contained biological indicators positive for glucosidase enzyme activity (ENZ+) [1, 31]: 100%
percentage of self-contained biological indicators positive for glucosidase enzyme activity (ENZ+) [1, 32]: 100%
percentage of self-contained biological indicators positive for glucosidase enzyme activity (ENZ+) [1, 33]: 0%
percentage of self-contained biological indicators positive for glucosidase enzyme activity (ENZ+) [1, 34]: 33%
percentage of self-contained biological indicators positive for glucosidase enzyme activity (ENZ+) [1, 35]: 0%
percentage of self-contained biological indicators positive for glucosidase enzyme activity (ENZ+) [1, 36]: 0%
percentage of self-contained biological indicators positive for glucosidase enzyme activity (ENZ+) [1, 37]: 100%
percentage of self-contained biological indicators positive for glucosidase enzyme activity (ENZ+) [1, 38]: 100%
percentage of self-contained biological indicators positive for glucosidase enzyme activity (ENZ+) [1, 39]: 0%
percentage of self-contained biological indicators positive for glucosidase enzyme activity (ENZ+) [1, 40]: 67%
percentage of self-contained biological indicators positive for glucosidase enzyme activity (ENZ+) [1, 41]: 0%
percentage of self-contained biological indicators positive for glucosidase enzyme activity (ENZ+) [1, 42]: 0%
sensitivity of the biological indicator to the sterilization process relative to the control with no additives ([2]; Example 2 / Comparative Example 1 (Table 4), fluorescence and growth readouts): increased sensitivity (decreased resistance)
sensitivity of the spores to the damaging/lethal effects of the sterilization process relative to the control with no additives ([2]; Example 3 (Table 5), fluorescence and growth readouts): increased sensitivity
percentage of self-contained biological indicators positive for growth (GRO+) [2, 3]: 80%
percentage of self-contained biological indicators positive for growth (GRO+) [2, 4]: 0%
percentage of self-contained biological indicators positive for growth (GRO+) [2, 5]: 0%
percentage of self-contained biological indicators positive for growth (GRO+) [2, 6]: 0%
percentage of self-contained biological indicators positive for growth (GRO+) [2, 7]: 0%
percentage of self-contained biological indicators positive for growth (GRO+) [2, 8]: 0%
percentage of self-contained biological indicators positive for growth (GRO+) [2, 9]: 0%
percentage of self-contained biological indicators positive for growth (GRO+) [2, 10]: 0%
percentage of self-contained biological indicators positive for growth (GRO+) [2, 11]: 0%
percentage of self-contained biological indicators positive for growth (GRO+) [2, 12]: 0%
percentage of self-contained biological indicators positive for growth (GRO+) [2, 13]: 100%
percentage of self-contained biological indicators positive for growth (GRO+) [2, 14]: 100%
percentage of self-contained biological indicators positive for growth (GRO+) [2, 15]: 0%
percentage of self-contained biological indicators positive for growth (GRO+) [2, 16]: 0%
percentage of self-contained biological indicators positive for growth (GRO+) [2, 17]: 0%
percentage of self-contained biological indicators positive for growth (GRO+) [2, 18]: 0%
percentage of self-contained biological indicators positive for growth (GRO+) [2, 19]: 100%
percentage of self-contained biological indicators positive for growth (GRO+) [2, 20]: 33%
percentage of self-contained biological indicators positive for growth (GRO+) [2, 21]: 0%
percentage of self-contained biological indicators positive for growth (GRO+) [2, 22]: 0%
percentage of self-contained biological indicators positive for growth (GRO+) [2, 23]: 0%
percentage of self-contained biological indicators positive for growth (GRO+) [2, 24]: 0%
percentage of self-contained biological indicators positive for growth (GRO+) [2, 25]: 100%
percentage of self-contained biological indicators positive for growth (GRO+) [2, 26]: 0%
percentage of self-contained biological indicators positive for growth (GRO+) [2, 27]: 0%
percentage of self-contained biological indicators positive for growth (GRO+) [2, 28]: 0%
percentage of self-contained biological indicators positive for growth (GRO+) [2, 29]: 0%
percentage of self-contained biological indicators positive for growth (GRO+) [2, 30]: 0%
percentage of self-contained biological indicators positive for growth (GRO+) [2, 31]: 100%
percentage of self-contained biological indicators positive for growth (GRO+) [2, 32]: 0%
percentage of self-contained biological indicators positive for growth (GRO+) [2, 33]: 0%
percentage of self-contained biological indicators positive for growth (GRO+) [2, 34]: 0%
percentage of self-contained biological indicators positive for growth (GRO+) [2, 35]: 0%
percentage of self-contained biological indicators positive for growth (GRO+) [2, 36]: 0%
percentage of self-contained biological indicators positive for growth (GRO+) [2, 37]: 33%
percentage of self-contained biological indicators positive for growth (GRO+) [2, 38]: 0%
percentage of self-contained biological indicators positive for growth (GRO+) [2, 39]: 0%
percentage of self-contained biological indicators positive for growth (GRO+) [2, 40]: 0%
percentage of self-contained biological indicators positive for growth (GRO+) [2, 41]: 0%
percentage of self-contained biological indicators positive for growth (GRO+) [2, 42]: 0%

— patent US20210038753A1, “BIOLOGICAL STERILIZATION INDICATOR WITH STERILANT RESISTANCE MODULATOR” (3M INNOVATIVE PROPERTIES COMPANY, priority 2014, published 2021)
